From the supplement of paper PMC10307832

Compound: CN1CCC(CC1)OC2=CC(=C(C=C2)NC3=NC=C4C(=N3)N(C(=O)N4C)C5CCCC5)OC [AZ3146] + C[C@@H](Oc1cc(-c2cnn(C3CCNCC3)c2)cnc1N)c1c(Cl)ccc(F)c1Cl [Crizotinib] (partner 1 µM)
Experiment: relative viability (nuclei count vs DMSO), 5 days (fraction); higher = more cells survive
Settings: first compound 0.08 µM
Method in brief: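 Relative viability is defined as nuclei in treated wells over nuclei in vehicle wells. Duplicate plates were run and medians reported. Lung cancer cell lines in 1536-well plates were dosed by pin tool one day after seeding, with one drug or with a fixed anchor-drug dose plus five library-drug doses (not always all listed) in √10 steps, and nuclei were counted after 5 days.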

Cell Line | relative viability
NCI-H650 | 0.571
LK-2 | 0.229
NCI-H2228 | 0.537
HARA | 0.983
Calu-6 | 0.715
COR-L23 | 0.506
LCLC-103H | 0.987
LXF-289 | 0.848
EBC-1 | 0.192
NCI-H358 | 0.587
A549 | 0.655
NCI-H1299 | 0.964
CAL-12T | 0.507
NCI-H1703 | 0.447
NCI-H1563 | 0.874
NCI-H2170 | 1.04
ABC-1 | 0.852
SK-MES-1 | 0.936

Same assay, conditions: first compound 0.253 µM

Cell Line | relative viability
PC-14 | 0.98
NCI-H1666 | 1.01
EKVX | 1.12
NCI-H1755 | 0.888
NCI-H2023 | 0.636
HCC-78 | 0.326
SK-LU-1 | 1.11
PC-3 [JPC-3] | 0.983
LOU-NH91 | 0.699
NCI-H647 | 1.12
NCI-H23 | 0.515
EPLC-272H | 0.843
NCI-H2126 | 0.992
ChaGo-K-1 | 1.26
HCC-44 | 0.791
NCI-H1734 | 0.752
NCI-H650 | 0.721
NCI-H2228 | 0.503

Cell Line | relative viability
NCI-H1944 | 0.977
HARA | 1.03
Calu-6 | 0.763
COR-L23 | 0.649
LCLC-103H | 1.08
LXF-289 | 0.886
EBC-1 | 0.213
NCI-H358 | 0.616
A549 | 0.777
NCI-H1299 | 0.961
CAL-12T | 0.72
IA-LM | 0.654
NCI-H1703 | 0.59
NCI-H1563 | 0.896
NCI-H2170 | 1.07
ABC-1 | 1.38
SK-MES-1 | 1.03

Same assay, conditions: first compound 0.8 µM

Cell Line | relative viability
PC-14 | 0.975
NCI-H1666 | 1.08
EKVX | 1.06
NCI-H1755 | 0.855
NCI-H2023 | 0.485
HCC-78 | 0.329
SK-LU-1 | 1.03
PC-3 [JPC-3] | 0.974
LOU-NH91 | 0.746
NCI-H647 | 0.978
NCI-H23 | 0.516
EPLC-272H | 1.02
NCI-H2126 | 1.06
ChaGo-K-1 | 0.951
HCC-44 | 0.724
NCI-H1734 | 0.655
NCI-H650 | 0.827
NCI-H2228 | 0.423

Cell Line | relative viability
NCI-H1944 | 1.09
HARA | 1.03
Calu-6 | 0.701
COR-L23 | 0.622
LCLC-103H | 0.984
LXF-289 | 0.795
EBC-1 | 0.173
NCI-H358 | 0.425
A549 | 0.453
NCI-H1299 | 0.952
CAL-12T | 0.595
IA-LM | 0.898
NCI-H1703 | 0.384
NCI-H1563 | 0.954
NCI-H2170 | 1.22
ABC-1 | 1.03
SK-MES-1 | 0.97

Same assay, conditions: first compound 2.53 µM

Cell Line | relative viability
PC-14 | 1
NCI-H1666 | 0.934
EKVX | 1.1
NCI-H1755 | 0.928
NCI-H2023 | 0.407
HCC-78 | 0.387
SK-LU-1 | 0.985
PC-3 [JPC-3] | 1.03
LOU-NH91 | 0.71
NCI-H647 | 0.763
NCI-H23 | 0.425
EPLC-272H | 1.14
NCI-H2126 | 1.07
ChaGo-K-1 | 0.593
HCC-44 | 0.796
NCI-H1734 | 0.697
NCI-H650 | 0.781
LK-2 | 0.228

Cell Line | relative viability
NCI-H2228 | 0.396
NCI-H1944 | 1.13
HARA | 0.72
Calu-6 | 0.465
COR-L23 | 0.502
LCLC-103H | 1.08
LXF-289 | 0.781
EBC-1 | 0.194
NCI-H358 | 0.398
A549 | 0.0847
NCI-H1299 | 0.636
CAL-12T | 0.733
IA-LM | 0.615
NCI-H1703 | 0.365
NCI-H1563 | 0.802
NCI-H2170 | 1.11
ABC-1 | 1.07
SK-MES-1 | 1.12

Same assay, conditions: first compound 8 µM

Cell Line | relative viability
PC-14 | 0.828
NCI-H1666 | 0.778
EKVX | 0.365
NCI-H1755 | 0.816
NCI-H2023 | 0.449
HCC-78 | 0.361
SK-LU-1 | 0.471
PC-3 [JPC-3] | 0.984
LOU-NH91 | 0.75
NCI-H647 | 0.201
NCI-H23 | 0.305
EPLC-272H | 0.975
NCI-H2126 | 0.989
ChaGo-K-1 | 0.328
HCC-44 | 0.668
NCI-H1734 | 0.598
NCI-H650 | 0.542
LK-2 | 0.219

Cell Line | relative viability
NCI-H2228 | 0.369
NCI-H1944 | 1.1
HARA | 0.206
Calu-6 | 0.256
COR-L23 | 0.407
LCLC-103H | 1.11
LXF-289 | 0.444
EBC-1 | 0.166
NCI-H358 | 0.177
A549 | 0.0598
NCI-H1299 | 0.511
CAL-12T | 0.247
IA-LM | 0.115
NCI-H1703 | 0.241
NCI-H1563 | 0.777
NCI-H2170 | 1.03
ABC-1 | 0.452
SK-MES-1 | 1.05
